Test results taken from patent publication US10801065B2, “Methods of determining levels of exposure to radiation and uses thereof” (priority 2015, dated 2020).
“And” between values parts separate entries of the source, which are not always exact repeats. Identical values can stand only once.

Columns and labels:
Format in all cases: in vivo
lethally-irradiated mice = experiment: Kaplan-Meier survival of mice given amifostine before lethal total body irradiation
Protocol: C57BL/6J male mice (10 weeks old) were obtained from Jackson Labs (Bar Harbor, Me.) and the mice were used in the experiments at an age of 12-13 weeks. Animals were exposed to total body irradiation in an irradiation pie cage (Braintree Scientific, Braintree, Mass.) at various doses. Irradiation was performed using a 137Cs source (Gamma Cell® 40 Exactor, Best Theratronics, Ottawa, Ontario).
Saline or amifostine was given to mice intraperitoneally at 250 mg/kg body weight 24 hours prior to 0 Gy- or 8 Gy-total body irradiation in a first set of experiments. In a second set of experiments, mice were left untreated or mice were administered saline or 200 mg/kg amifostine 45 minutes prior to 0 Gy- or 8.5 Gy-total body irradiation. Serum was collected from all mice at 24 hours after irradiation or a time point in the non-irradiated mice that would correspond to 24 hours after irradiation in the treated mice.
Validation with real-time qPCR: One-way ANOVA was used to confirm global significance. Dunnett's post-hoc testing procedure was used to compare miRNA levels in the irradiated+saline-group against three other experimental groups. Univariate comparisons were performed using the Student's t-test or the Student's t-test for paired samples. Pearson's correlation coefficient was used for correlation testing. Survival analysis was performed using the log-rank (Mantel-Cox) test.

[1] = system: HuCD34+ humanized NSG mice, 4 Gy to 4.5 Gy total body irradiation; experiment: Bone marrow cellularity, human CD45 positive cells and CFU-Cs in irradiated humanized mice given amifostine; conditions: amifostine 200 mg/kg prior to 4.0 Gy or 4.5 Gy total body irradiation vs saline
Protocol: Bone marrow was harvested as per protocols described in Parmar et al. (Stem Cells 28:1186-1195, 2010). Briefly, animals were dissected to isolate the femurs and tibia from the mouse hind limb. The extracted bones were flushed with a 23-gauge needle using Hank's Balanced Salt Solution (HBSS, Life Technologies, Grand Island, N.Y.) supplemented with 2% fetal bovine serum (FBS) and 1% 10 mM HEPES (Life Technologies) to obtain bone marrow. The cells were then passed through an 18 gauge needle to obtain a single cell suspension. The bone marrow mononuclear cell count (BM-MNC) was determined by counting cells using 3% acetic acid with methylene blue solution (Stem Cell Technologies, Vancouver, British Columbia). For LKS (lineage, cKit, Sca-1) staining to visualize hematopoietic progenitor cells (HPCs) and hematopoietic stem cells (HSCs), whole bone marrow was stained with biotinylated anti-lineage cocktail (anti-Mac1, Gr-1, CD3e, B220, and Ter119), APC-conjugated anti-cKit (clone 2B8), and PECy7-conjugated anti Sca-1 (clone D7) antibodies. Following primary antibody staining, the cells were washed and incubated in PE-conjugated streptavidin secondary antibody to visualize lineage-positive cells. All primary and secondary antibodies were obtained from BD Biosciences (San Jose, Calif.). The samples were acquired using an LSR Fortessa instrument (Becton Dickinson, Franklin Lakes, N.J.) and data was analyzed using FlowJo software (TreeStar, Ashland, Oreg.).
To assess colony-forming ability, whole bone marrow isolated after flushing mouse femurs and tibiae was plated in 12-well plates at a density of 20,000 to 100,000 cells/well in methylcellulose medium (Methocult CF M3434, Stem Cell Technologies, Vancouver, British Columbia) containing recombinant murine IL-3, recombinant murine IL-6, and recombinant human erythropoietin. Cells from all samples were plated in triplicates and incubated at 37° C. in 5% CO2 for 7 days at which time hematopoietic colonies formed (colony-forming units in culture, CFU-Cs) were scored. […]

[2] = system: HuCD34+ humanized NSG mice, 4 Gy to 4.5 Gy total body irradiation; experiment: Peripheral blood CBC at euthanasia in irradiated humanized mice given amifostine; conditions: TBI + Amifostine
Protocol: Blood collection for CBCs (100 μL) was performed by retro-orbital bleeding after anesthesia in EDTA-coated tubes (BD Biosciences, San Jose, Calif.). CBCs were recorded with a Hemavet 950 FS hematology analyzer (Drew Scientific, Dallas, Tex.).
HuCD34^+ “humanized” NSG mice were obtained from Jackson Labs, Bar Harbor, Me. These mice were generated by irradiating each mouse at 1.4 Gy to deplete their bone marrow and injecting each mouse with CD34^+ human HSC. Each mouse was tested for engraftment of human CD45^+ cells and murine CD45^+ cells at 12 weeks following transplantation. Prior to the experiments described herein, the presence of human CD45^+ cells was confirmed in the peripheral blood and bone marrow from untreated control mice using an anti-human CD45 FITC antibody.
The HuCD34^+ mice were treated with saline or amifostine (200 mg/kg of body weight 45 min-1 hr before radiation exposure) and were subsequently treated with 4 Gy to 4.5 Gy of total body irradiation, or were left untreated. Following these treatments, total bone cellularity and the levels of serum miRNAs were determined in the mice. Both CD45 staining of peripheral blood and engraftment analysis of bone marrow was performed when animals became moribund (between 9-14 days after total body radiation) and were sacrificed. The mice were irradiated at approximately 12 weeks after initial assessment of engraftment.

[3] = system: serum miRNAs miR-187-3p, miR-194-5p, miR-27a-3p, miR-30a-3p, miR-30c-5p; experiment: Serum miRNA levels (qPCR) in mice given amifostine before total body irradiation; conditions: amifostine 250 mg/kg 24 hours prior to 0 Gy or 8 Gy-total body irradiation; sera 24 hours post-irradiation
Protocol: Peripheral blood was collected by retro-orbital bleeding after anesthesia. Up to 200 μL of blood was collected in DNAse/RNAse-free Eppendorf tubes and incubated at room temperature for 2 hours to allow clotting. Blood samples were then centrifuged in an Eppendorf 5415C centrifuge at 14000 RPM (15996 g) for 5 minutes at room temperature.
Total RNA was isolated from serum samples by using the miRCURY™ RNA Isolation Kit—Biofluids from 50 μL mouse serum as per the manufacturer's manual. […] Total RNA was eluted in 50 μL of RNAse-free H2O and stored at −80° C. Per the manufacturer's recommendations, input volumes for serum RNA were optimized for the cDNA synthesis reaction. cDNA was synthesized in 10 μL reactions using the Universal cDNA Synthesis Kit II and was diluted 50-fold in RNAse/DNAse-free H2O for use in quantitative PCR. The reagents for RNA extraction and cDNA synthesis were obtained from Exiqon (Vedbaek, Denmark).
Diluted cDNA was subjected to quantitative PCR analysis in Pick-N-Mix plates designed in a 96-well format. […] All reagents used for quantitative PCR were obtained from Exiqon (Vedbaek, Denmark). […]

NCCCNCCSP(=O)(O)O [amifostine]
survival (lethally-irradiated mice; amifostine 200 mg/kg 45 minutes prior to 8.5 Gy-total body irradiation vs saline): prolonged survival
improvement in survival (lethally-irradiated mice; amifostine 250 mg/kg intraperitoneally 24 hours prior to 8 Gy-total body irradiation vs saline, n=8 per group, p=0.0452): 50%
number of CFU-Cs [1]: increase
number of human CD45 positive cells in the bone marrow [1]: increase
total bone marrow cellularity [1]: increase
HCT, CBC at euthanasia ([2]; group Avg): 10.93%
Hb, CBC at euthanasia ([2]; group Avg): 4.27 g/dL
PLT, CBC at euthanasia ([2]; group Avg): 104.33 K/uL
RBC, CBC at euthanasia ([2]; group Avg): 2.37 M/uL
WBC, CBC at euthanasia ([2]; group Avg): 1.22 K/uL
HCT, CBC at euthanasia ([2]; individual mice (# 8, 9, 13)): 17.00% and 11.00% and 4.80%
Hb, CBC at euthanasia ([2]; individual mice (# 8, 9, 13)): 4.80 g/dL (2×) and 3.20 g/dL
PLT, CBC at euthanasia ([2]; individual mice (# 8, 9, 13)): 213 K/uL and 44 K/uL and 56 K/uL
RBC, CBC at euthanasia ([2]; individual mice (# 8, 9, 13)): 2.55 M/uL and 1.65 M/uL and 2.92 M/uL
WBC, CBC at euthanasia ([2]; individual mice (# 8, 9, 13)): 1.28 K/uL and 1.19 K/uL and 1.20 K/uL
serum miRNA signature response to treatment [3]: responded to amifostine treatment only in the context of lethal radiation
